Structures are written as SMILES. Values after ≈ are worked out from the molar mass of the structure shown.

A short description of experiment [1]: Inhibition of Staphylococcus aureus SrtA.
Experiment [2] can be described thus: Inhibition of Staphylococcus aureus SrtA after 2 hrs.
The nature of experiment [3]: Inhibition of Bacillus anthracis SrtA.
The nature of experiment [4]: Inhibition of Staphylococcus aureus SrtA by FRET assay.
Experiment [5] can be described thus: Inhibition of Staphylococcus aureus ATCC 6538p recombinant SrtA after 1 hr by spectrometery using Dabcyl-QALPETGEE-Edans as substrate.
Experiment [6] is described as follows: Competitive inhibition of Staphylococcus aureus ATCC 6538p recombinant SrtA by spectrometery using Dabcyl-QALPETGEE-Edans as substrate.
A short description of experiment [7]: Inhibition of Staphylococcus aureus ATCC 6538p SrtA by spectrometery.

The compound `Clc1ccccc1-c1nn2c(-c3ccncc3)nnc2s1` showed an IC50 in experiment [1] of 11.78 µg/mL (≈ 37.5 µM). As to `CN(C)CCC(=O)c1ccc(Cl)c(Cl)c1`, the IC50 in experiment [2] turned out to be 15 µM; in experiment [3] it was 5.6 µM. `O=C(O)COc1ccccc1C1Nc2cccc3cccc(c23)N1` registered an IC50 in experiment [4] of 15.12 µg/mL (≈ 47.2 µM). For the compound `CC[C@H](CC[C@@H](C)[C@H]1CC[C@H]2[C@@H]3CC[C@@H]4C[C@@H](O[C@@H]5O[C@H](CO)[C@@H](O)[C@H](O)[C@H]5O)CC[C@]4(C)[C@H]3CC[C@]12C)C(C)C`, the IC50 in experiment [5] was 18.3 µg/mL. Consider `CN(C)CCC(=O)c1cccs1`, for which the figures for the concentration for half-maximal inhibition (IC50) in experiment [2] and in experiment [3] were 47 µM and 4.8 µM, respectively. As to `COC(=O)/C(=C/c1ccc(OC)cc1)c1ccc(OC)cc1`, in experiment [5] (read-out: IC50), the IC50 amounted to 231 µM. As for `COc1ccc(/C(C#N)=C/c2cc(OC)ccc2OC)cc1`, the IC50 in experiment [5] (read-out: IC50) turned out to be 9.2 µM. Besides, the Ki in experiment [6] was found to be 6.81 µM.

In the case of `COc1ccc(/C=C(\C#N)c2ccc(OC)cc2)cc1`, the IC50 in experiment [5] (read-out: IC50) is 28 µM. Take `COc1ccc2cc3[n+](cc2c1OC)CCc1cc2c(cc1-3)OCO2.[Cl-]` [BERBERINE CHLORIDE]: the IC50 in experiment [5] stood at 8.7 µg/mL. In turn, `COc1cc(/C=C/C(=O)CC(=O)/C=C/c2ccc(O)c(OC)c2)ccc1O` [CURCUMIN] displayed an IC50 in experiment [7] of 13.8 µg/mL (≈ 37.5 µM). In the case of `C=C(C)[C@H](CCC(C)(C)O)Cc1c(O)cc(OC)c2c1O[C@H](c1ccc(O)cc1O)CC2=O` [KURARINOL], the IC50 in experiment [1] was determined as 48.8 µg/mL (≈ 107 µM).

Values taken from ChEMBL document CHEMBL3734681, “Sortase A Inhibitors: Recent Advances and Future Perspectives” (J Med Chem, 2015).
